Data: PMC10671498, “Antiproliferative and Cytotoxic Properties of Propynoyl Betulin Derivatives against Human Ovarian Cancer Cells: In Vitro Studies” (International Journal of Molecular Sciences, 2023)
Read-outs that look alike come from different tables or passages of the source.

What was measured:
SK-OV-3 cells [1] = assay: SRB cell proliferation assay, SK-OV-3; type: cell-based, human; details: for IC50: Homo sapiens; for concentration at which antiproliferative activity (decrease in the number of cells) was evident: SK-OV-3, SRB assay, 0.1–30 µM
Method: This study used ovarian cancer cell lines, which are part of the panel of cell lines used as part of the NCI-60 Human Cell Lines Screen program, characterized by overexpression of the c-erbB2/neu (HER2) receptor [62, 63]. The human ovarian cancer cell lines (SK-OV-3 and OVCAR-3) were purchased from the American Type Culture Collection (ATCC®, Manassas, Virginia, USA). SK-OV-3 cells (ATCC No. HTB-77™) were cultured in McCoy’s 5A medium containing D-glucose (3 g/L), L-glutamine (0.219 g/L), and sodium bicarbonate (2.2 g/L) supplemented with 10% fetal bovine serum, 10 mM HEPES (pH 7.3–7.5), 100 U/mL penicillin, and 100 μg/mL streptomycin (all from Sigma Aldrich).
(§1) Betulin 1 and its derivatives were dissolved in dimethyl sulfoxide (DMSO; Sigma Aldrich) as a 15 mM stock solution. Working solutions were prepared through the dilution of stock solutions with culture medium. The final DMSO concentration in culture media was adjusted to 0.2%. The effect of tested compounds on the proliferation of SK-OV-3 and OVCAR-3 cells was measured using the In Vitro Toxicology Assay Kit, Sulforhodamine B based (Sigma Aldrich). Cells were seeded in 96-well plates (Greiner Bio-One, Kremsmünster, Austria) at an initial density of 3 × 10^3 cells per well in 200 µL of culture medium. After 24 h of incubation, betulin 1 and its derivatives at a concentration range of 0.1 μM to 30 μM were added to the wells. Control cultures were treated with vehicle alone (0.2% DMSO). The incubation periods for cells with test compounds were 1 day, 3 days, and 5 days. After appropriate incubation periods, culture media were removed, and cells were fixed in 10% trichloroacetic acid solution for 60 min at 4 °C. After fixation, the TCA solution was removed, and the plates were washed three times with deionized water (300 μL/well) and dried. At the next step, cells were stained with 0.4% sulforhodamine B for 30 min. The excess dye was removed by washing three times with 1% (vol/vol) acetic acid. The protein-bound dye was dissolved in 200 μL 10 mM Tris base solution. Absorbance was measured at 570 nm and 690 nm (reference wavelength) using the MRX Revelation plate reader (Dynex Technologies, Chantilly, VA, USA).
(§2) GraphPad Prism 10.0.2 (GraphPad Software Inc., San Diego, CA, USA) software was used for calculations and the statistical analysis of the IC50 values (Table 1). IC50 was determined by using the “nonlinear regression” mode, and the “log(inhibitor) vs. normalised response—Variable slope” equation was chosen in GraphPad Prism software for calculations. The obtained data were normalized to run from 100% down to 0%, and logarithms of concentration were used. Graphs (Figure 2, Figure 3, Figure 4, Figure 5 and Figure 8, and Supplementary Figure S1) were also prepared using this software. In the case of the lack of normal distribution or homogeneity of variances, the remaining results were analyzed using a non-parametric Kruskal–Wallis test with multiple comparisons. Post hoc analysis was performed with the non-parametric equivalent of Tukey’s test. A p value of <0.05 was considered statistically significant. Otherwise, a one-way ANOVA followed by a Tukey’s post hoc test was applied. t-tests was used to perform pairwise comparisons between group means. Analysis was performed using Statistica 13.1 software (StatSoft, Tulsa, OK, USA).

OVCAR-3 cells [2] = assay: LDH release assay, OVCAR-3; type: cell-based, human; details: OVCAR-3, 24 h
Method: (§3) In order to evaluate the cytotoxic effect, the release of LDH into the culture medium using the In Vitro Toxicology Assay Kit, Lactic Dehydrogenase Based (TOX7; Sigma Aldrich) was assessed. SK-OV-3 and OVCAR-3 cells were plated and cultured in 96-well plates (Greiner Bio-One) at the initial density of 5 × 10^3 cells per well in 100 µL of culture medium. The density of the cells was determined in the same manner as in the SRB assay. After 24 h, the media were replaced with the working solutions, which contained appropriate test compounds at concentrations of 3 μM, 10 μM, 30 μM, and control medium (0.2% DMSO). Cells were exposed to the test substances for 24 h. The background control comprised wells without cells with only control medium. To determine the maximal LDH release (high control), half of the control cultures were treated with lysis buffer. Wells with untreated cells were used as the low control of the assay. LDH activity in media was assessed according to the manufacturer’s protocol. The absorbance was measured at wavelengths of 490 nm and 690 nm (background), and the percentage of released enzyme was calculated for cells growing in the presence of compounds according to the formula:Cytotoxicity [%] = [(AT − AL)/(AH − AL)] × 100 where AT is the absorbance of treated wells; AL is low control; and AH is high control (maximal LDH release).
(§4) Cytotoxicity was expressed as a percentage of the released LDH calculated according to the difference between the absorbance of the treated and low control wells divided by the difference between the absorbance of the high control and low control wells.

OVCAR-3 cells [3] = assay: DNA fragmentation assay (Cell Death Detection ELISA, cytoplasmic fraction), OVCAR-3; type: cell-based, human; details: OVCAR-3, 24 h, 3, 10, 30 µM, among the betulin derivatives
Method: (§5) Fragmentation of genomic DNA was determined by means of the Cell Death Detection ELISAPLUS kit (Roche, Basel, Switzerland). This method rests on the immunoenzymatic detection of DNA–histone complexes in the cytoplasmic cell fraction or cell culture supernatants. Cells were plated and cultured in 96-well plates (Greiner Bio-One) at the initial density of 5 × 10^3 cells per well in 100 µL of culture medium. Cells were allowed to attach and grow for 1 day prior to the addition of test reagents. Then, the media were replaced with the working solutions (3 µM, 10 µM, 30 µM), and cells were exposed to compounds 2–6 for 24 h. In some cases, 5 µM cyclosporin A (CsA, an inhibitor of the mitochondrial permeability transition) was added to the cells 30 min before treatment with the betulin derivative. Subsequently, cells were incubated concomitantly with both compounds. After a 24 h incubation period, plates were centrifuged (200× g; 10 min), media were removed, and cells were lysed for 30 min at room temperature. At the next step, the lysates were again spun (200× g; 10 min), and 20 µL of supernatants (cytoplasmic fractions) was moved to the new 96-well streptavidin-coated plate. In one experiment, the presence of mono- and oligonucleosomes was determined in 20 µL samples of centrifuged culture supernatants (media) to detect the permeability of plasma membrane (considered as an indicator of cell necrosis). Then, the sandwich ELISA assay was fulfilled according to the manufacturer’s protocol. Absorbance was measured at 405 nm and 490 nm (reference wavelength), and the enrichment factor of the cytoplasmic (or supernatant) fraction in mono- and oligonucleosomes was calculated according to the formula: EF = absorbance of sample cells/absorbance of control cells.
(§6) A high EF index in the cytoplasmic fraction (resulting from DNA fragmentation while maintaining the tightness of cell membranes) is a typical indicator of the relatively early stage of apoptosis.

[4] = system: 18Co normal myofibroblasts; assay: SRB cell proliferation assay, 18Co normal myofibroblasts; type: cell-based
Method: Next, 18Co cells (ATCC No. CRL-1459™) were cultured in MEM medium containing HEPES buffer, 10% fetal bovine serum, 100 U/mL penicillin, and 100 μg/mL streptomycin (all from Sigma Aldrich).
as §1, §2

OVCAR-3 cells [5] = assay: SRB cell proliferation assay, OVCAR-3; type: cell-based, human; details: for IC50: Homo sapiens; for concentration at which antiproliferative activity (decrease in the number of cells) was evident: OVCAR-3, SRB assay, 0.1–30 µM
Method: OVCAR-3 cells (ATCC No. HTB-161™) were cultured in RPMI-1640 medium containing HEPES buffer (2.383 g/L), sodium bicarbonate (1.5 g/L), sodium pyruvate (0.11 g/L) supplemented with 20% fetal bovine serum, 10 µg/mL bovine insulin, 100 U/mL penicillin, and 100 μg/mL streptomycin (all from Sigma Aldrich).
as §1, §2

SK-OV-3 cells [6] = assay: LDH release assay, SK-OV-3; type: cell-based, human; details: SK-OV-3, 24 h, all concentrations (3, 10, 30 μM)
Method: as §3, §4

SK-OV-3 cells [7] = assay: DNA fragmentation assay (Cell Death Detection ELISA, cytoplasmic fraction), SK-OV-3; type: cell-based, human; details: SK-OV-3, 24 h, 3, 10, 30 µM
Method: as §5, §6

[8] = system: human melanoma cell line A2058; parameters: method as in PMID 28100848; details: A2058, 3 μM; cited from earlier work
[9] = system: human melanoma cell line C32; parameters: method as in PMID 28100848; details: C32, 3 μM; cited from earlier work
SK-OV-3 cells [10] = assay: TMRM analysis of mitochondrial membrane potential; type: cell-based, human; details: SK-OV-3, 3 h, 30 µM
Method: Tetramethylrhodamine methyl ester (Sigma Aldrich) was used for the assessment of changes in the transmembrane potential of mitochondria. TMRM is a fluorescent cationic dye accumulating in mitochondria in a potential-dependent manner. Cell cultures were prepared as described above for acridine orange staining. Cells were exposed to test solutions for 3 h, and then TMRM was added (final concentration 100 nM) followed by incubation for 30 min in the CO2 incubator. Prior to observation, the plates were centrifuged (250× g, 5 min), and the medium was changed to PBS. The cells were analyzed under the Nikon Eclipse TS-100F microscope and photographed.

[11] = 18Co, 3 days treatment, Neg: negative in the concentration used
[12] = 18Co, 5 days treatment, Neg: negative in the concentration used
[13] = 72 h, SK-OV-3, 3 days treatment, SRB assay, read-out: IC50
[14] = 120 h, SK-OV-3, 5 days treatment, SRB assay, read-out: IC50
[15] = 72 h, OVCAR-3, 3 days treatment, SRB assay, read-out: IC50
[16] = 120 h, OVCAR-3, 5 days treatment, SRB assay, read-out: IC50

| SMILES | IC50 (SK-OV-3 cells [1]; SK-OV-3, 72 h) [nM] | IC50 (SK-OV-3 cells [1]; SK-OV-3, 120 h) [nM] | IC50 (OVCAR-3 cells [5]; OVCAR-3, 72 h) [nM] | IC50 (OVCAR-3 cells [5]; OVCAR-3, 120 h) [nM] | concentration at which antiproliferative activity (decrease in the number of cells) was evident (OVCAR-3 cells [5]) [µM] | concentration at which antiproliferative activity (decrease in the number of cells) was evident (SK-OV-3 cells [1]) [µM] | IC50 [4, 11] | IC50 [4, 12] | IC50 (SK-OV-3 cells [1]; [13]) [nM] | IC50 (SK-OV-3 cells [1]; [14]) [nM] | IC50 (OVCAR-3 cells [5]; [15]) [nM] | IC50 (OVCAR-3 cells [5]; [16]) [nM] | further results |
| --- | --- | --- | --- | --- | --- | --- | --- | --- | --- | --- | --- | --- | --- |
| C#CC(=O)O[C@H]1CC[C@@]2(C)C(CC[C@]3(C)C2CCC2C4[C@H](C(=C)C)CC[C@]4(COP(=O)(OCC)OCC)CC[C@]23C)C1(C)C (stereo partly shown) [Compound 4, 28-O-diethoxyphosphoryl-3-O-propynoylbetulin] | 1080 | 1330 | 1880 | 1450 | > 3 | – | – | – | – | – | – | – | cytotoxicity (released LDH), loss of cell membrane integrity (OVCAR-3 cells [2]; 10 μM and 30 μM): loss of cell membrane integrity was also confirmed; DNA fragmentation (enrichment factor) (OVCAR-3 cells [3]): greatest effect; IC50 ([4]; 72 h): 9470 nM; IC50 ([4]; 120 h): 23700 nM |
| C#CC(=O)OC[C@]12CC[C@@H](C(=C)COP(=O)(OCC)OCC)C1C1CCC3[C@@]4(C)CC[C@H](O)C(C)(C)C4CC[C@@]3(C)[C@]1(C)CC2 (stereo partly shown) [Compound 5, 30-diethoxyphosphoryloxy-28-O-propynoylbetulin] | 280 | 290 | 540 | 600 | 1 | 1 | Neg | Neg | – | – | – | – | cytotoxicity (released LDH) (OVCAR-3 cells [2]; all concentrations (3, 10, 30 μM)): significant cytotoxic activity; cytotoxicity (released LDH) (SK-OV-3 cells [6]): strong cytotoxic effect |
| CC(=O)O[C@H]1C(=O)[C@@]2(C)[C@H]([C@H](OC(=O)c3ccccc3)[C@]3(O)C[C@H](OC(=O)[C@H](O)[C@@H](NC(=O)c4ccccc4)c4ccccc4)C(C)=C1C3(C)C)[C@]1(OC(C)=O)CO[C@@H]1C[C@@H]2O [PTX, Paclitaxel, reference compound] | – | – | – | – | – | – | Neg | – | 4.39 | 5.65 | 4.49 | 2.97 | IC50 ([4]; 120 h, 18Co, 5 days treatment, Neg: negative in the concentration used, read-out: IC50): 14.8 nM |
| C#CC(=O)OC[C@]12CC[C@@H](C(=C)C)[C@@H]1[C@H]1CC[C@@H]3[C@@]4(C)CC[C@H](O)C(C)(C)[C@@H]4CC[C@@]3(C)[C@]1(C)CC2 [Compound 2, 28-O-propynoylbetulin] | – | – | – | – | ≥ 0.3 | ≥ 0.3 | Neg | Neg | 180 | 200 | 160 | 190 | DNA fragmentation (enrichment factor, internucleosomal DNA fragments) (SK-OV-3 cells [7]): moderate increases; inhibition of proliferation [8]: strong inhibition; inhibition of proliferation [9]: strong inhibition; mitochondrial membrane potential (TMRM fluorescence) (SK-OV-3 cells [10]): reduced the mitochondrial membrane potential |
